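Five concentrations, 48 hours, 96-well plates. GI50 is the concentration that inhibits growth by half.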 Calls of active or inactive are those of the source. No stated cut-off is given here; in the data, active = GI50 up to about 1.1 µM and inactive = higher.
Assays:
Assay in all cases: NCI anticancer screen, dose series, 48 h
MOLT-4 = tested on: MOLT-4
SF-539 = tested on: SF-539
A549 = tested on: A549
UO-31 = tested on: UO-31
HCT-116 = tested on: HCT-116
HT-29 = tested on: HT-29
HL-60 = tested on: HL-60
HOP-62 = tested on: HOP-62
OVCAR-4 = tested on: OVCAR-4
UACC-62 = tested on: UACC-62
OVCAR-8 = tested on: OVCAR-8
786-0 = tested on: 786-0
UACC-257 = tested on: UACC-257
HOP-92 = tested on: HOP-92
U-251 = tested on: U-251
SF-295 = tested on: SF-295
CCRF-CEM = tested on: CCRF-CEM
OVCAR-3 = tested on: OVCAR-3
TK-10 = tested on: TK-10
SR = tested on: SR

Measured: GI50

O=C1c2ccccc2C(=O)N1CCCOCc1cnc(O)nc1O
inactive: MOLT-4 > 100 µM | SF-539 > 100 µM | A549 > 100 µM | UO-31 > 100 µM | HCT-116 > 100 µM | HT-29 > 100 µM | HL-60 > 100 µM | HOP-62 > 100 µM | OVCAR-4 > 100 µM | UACC-62 > 100 µM | OVCAR-8 > 100 µM | 786-0 > 100 µM | UACC-257 > 100 µM | HOP-92 > 100 µM | U-251 > 100 µM | SF-295 > 100 µM | CCRF-CEM > 100 µM | OVCAR-3 > 100 µM | TK-10 > 100 µM

O=C(Oc1ccc(OC(Oc2ccccc2)c2ccccc2)cc1)c1ccccc1 (stereo unspecified)
inactive: MOLT-4 16 µM | A549 21.1 µM | UO-31 16 µM | HCT-116 16.1 µM | HT-29 22.9 µM | HL-60 16.3 µM | HOP-62 13.9 µM | OVCAR-4 15 µM | UACC-62 > 31.6 µM | OVCAR-8 > 31.6 µM | SR 19.1 µM | 786-0 > 31.6 µM | UACC-257 17.9 µM | U-251 > 75.7 µM | SF-295 14.7 µM | CCRF-CEM 17.3 µM | OVCAR-3 25.4 µM | TK-10 31.3 µM

O=C1NC2C(CCO)CC=C[C@H]2c2cc3c(cc21)OCO3 (stereo partly specified)
inactive: MOLT-4 > 100 µM | SF-539 > 100 µM | A549 > 100 µM | UO-31 > 100 µM | HCT-116 > 100 µM | HT-29 > 100 µM | HL-60 > 100 µM | HOP-62 > 100 µM | UACC-62 > 100 µM | OVCAR-8 > 100 µM | SR > 100 µM | 786-0 > 100 µM | UACC-257 > 100 µM | U-251 > 100 µM | SF-295 > 100 µM | CCRF-CEM > 100 µM | OVCAR-3 > 100 µM | TK-10 > 100 µM

NC1=NC2=C(CCCC2)C(c2cccs2)S1 (stereo unspecified)
inactive: MOLT-4 36.8 µM | SF-539 > 100 µM | A549 93.3 µM | UO-31 5.43 µM | HCT-116 > 100 µM | HT-29 > 100 µM | HL-60 8.73 µM | HOP-62 > 100 µM | OVCAR-4 86.5 µM | UACC-62 > 100 µM | OVCAR-8 > 100 µM | 786-0 84.5 µM | UACC-257 49.7 µM | HOP-92 47.8 µM | U-251 > 100 µM | SF-295 > 100 µM | CCRF-CEM 55 µM | OVCAR-3 59.8 µM | TK-10 > 100 µM

N[C@@H](Cc1ccccc1)C(=O)N1CCC[C@@H]1P(=O)(Oc1ccccc1)Oc1ccccc1
inactive: MOLT-4 60.3 µM | SF-539 > 100 µM | A549 > 100 µM | UO-31 > 100 µM | HCT-116 > 100 µM | HT-29 86.3 µM | HL-60 > 100 µM | HOP-62 > 100 µM | OVCAR-4 > 100 µM | UACC-62 > 100 µM | OVCAR-8 > 100 µM | 786-0 > 100 µM | UACC-257 > 100 µM | HOP-92 > 100 µM | U-251 > 100 µM | SF-295 > 100 µM | CCRF-CEM > 100 µM | OVCAR-3 > 100 µM | TK-10 > 100 µM

COc1ccc(OC)c2c1ccc1c(C)c3ccccc3c(C)c12
inactive: MOLT-4 88.9 µM | UO-31 82.2 µM | HCT-116 67.9 µM | HT-29 95.1 µM | HL-60 57.1 µM | HOP-62 86.5 µM | OVCAR-4 79.4 µM | UACC-62 > 100 µM | OVCAR-8 > 100 µM | SR 36.6 µM | 786-0 > 100 µM | UACC-257 > 100 µM | U-251 > 100 µM | CCRF-CEM > 100 µM | OVCAR-3 95.3 µM | TK-10 > 100 µM

O=C(NCCCN1CCN(CCCNC(=O)Nc2cc(Cl)ccc2Cl)CC1)Nc1cc(Cl)ccc1Cl
inactive: MOLT-4 > 100 µM | SF-539 44.5 µM | A549 > 100 µM | UO-31 > 100 µM | HCT-116 79.3 µM | HT-29 51.4 µM | HL-60 34.4 µM | HOP-62 52.6 µM | OVCAR-4 34 µM | UACC-62 64.7 µM | OVCAR-8 61.8 µM | 786-0 32.5 µM | UACC-257 16.5 µM | HOP-92 50.6 µM | U-251 50.7 µM | SF-295 49.3 µM | CCRF-CEM > 100 µM | OVCAR-3 > 100 µM | TK-10 > 100 µM

CCOC(=O)c1ccc(NC(=O)SCCC(=O)O)cc1
inactive: MOLT-4 23 µM | SF-539 > 100 µM | A549 > 100 µM | UO-31 > 100 µM | HCT-116 > 100 µM | HT-29 52.5 µM | HL-60 > 100 µM | HOP-62 > 100 µM | UACC-62 39.5 µM | OVCAR-8 56.4 µM | SR > 100 µM | 786-0 > 100 µM | UACC-257 > 100 µM | U-251 > 100 µM | SF-295 > 100 µM | CCRF-CEM > 100 µM | OVCAR-3 > 100 µM | TK-10 > 100 µM

Nc1c(-c2ccc(Cl)cc2)[n+]([O-])c2ccccc2[n+]1[O-]
inactive: MOLT-4 27.3 µM | SF-539 > 100 µM | A549 > 100 µM | UO-31 5.86 µM | HT-29 > 100 µM | HL-60 32.4 µM | HOP-62 > 100 µM | OVCAR-4 69.3 µM | UACC-62 > 100 µM | OVCAR-8 > 100 µM | 786-0 > 100 µM | UACC-257 58.5 µM | HOP-92 28.1 µM | U-251 62.2 µM | SF-295 87.7 µM | CCRF-CEM 54.5 µM | OVCAR-3 67.3 µM | TK-10 > 100 µM

Cc1cc(NS(=O)(=O)c2ccc(NC(=O)c3cccc4c(Nc5ccc(S(=O)(=O)Nc6cc(C)on6)cc5)c5ccc(Cl)cc5nc34)cc2)no1
inactive: MOLT-4 56 µM | SF-539 37.7 µM | A549 61.1 µM | UO-31 25.3 µM | HCT-116 23.2 µM | HT-29 > 100 µM | HL-60 35 µM | HOP-62 61.5 µM | OVCAR-4 49.5 µM | UACC-62 35.2 µM | OVCAR-8 > 100 µM | 786-0 > 100 µM | UACC-257 > 100 µM | HOP-92 24.3 µM | U-251 35.5 µM | SF-295 > 100 µM | CCRF-CEM 41.9 µM | OVCAR-3 68.5 µM | TK-10 > 100 µM

Clc1ccc(COC(Cn2ccnc2)c2ccc(Cl)cc2Cl)c(Cl)c1 (stereo unspecified) [MICONAZOLE]
inactive: MOLT-4 4.33 µM | SF-539 13.8 µM | A549 9.64 µM | UO-31 3.82 µM | HCT-116 5.12 µM | HL-60 3.78 µM | HOP-62 13.5 µM | OVCAR-4 10.1 µM | UACC-62 11.5 µM | OVCAR-8 13.9 µM | 786-0 7.33 µM | UACC-257 13.6 µM | HOP-92 11.4 µM | U-251 11.7 µM | SF-295 11.2 µM | CCRF-CEM 8.09 µM | OVCAR-3 12.2 µM | TK-10 13.7 µM

Source: ChEMBL document CHEMBL1201862, “PubChem BioAssay data set” (2004)
